Publication doi:10.1101/2021.02.17.431525v1 (biorxiv, 2021)

Molecular target: GRB2 (growth factor receptor bound protein 2) (Homo sapiens, UniProt P62993)
Assay: biochemical

GRB2 (growth factor receptor bound protein 2), sequence (P62993 whole entry): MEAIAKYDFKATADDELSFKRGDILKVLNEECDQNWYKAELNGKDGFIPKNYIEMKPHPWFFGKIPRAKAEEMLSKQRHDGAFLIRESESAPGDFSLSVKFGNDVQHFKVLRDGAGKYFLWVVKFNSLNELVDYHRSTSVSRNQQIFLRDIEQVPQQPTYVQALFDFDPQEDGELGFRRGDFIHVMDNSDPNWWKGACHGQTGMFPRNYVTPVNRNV

SMILES: CC(C)=CCC[C@](C)(O)[C@H]1CC[C@]2(C)[C@@H]1[C@H](O)C[C@@H]1[C@@]3(C)CC[C@H](O[C@@H]4O[C@H](CO)[C@@H](O)[C@H](O)[C@H]4O[C@@H]4O[C@H](CO)[C@@H](O)[C@H](O)[C@H]4O)C(C)(C)[C@@H]3CC[C@]12C [ginsenoside Rg3]
- Kd: 1.53 ± 0.11 µM
